Experimental data: US8227232B2, “Thermostable L-ribose isomerase and method for producing same and use of same” (National University Corporation Kagawa Univeristy, priority 2006, dated 2012)

What was measured:
[1] = tested on: thermostable L-ribose isomerase derived from Raoultella ornithinolytica; assay: L-ribose isomerase activity assay on various aldose substrates (cysteine/carbazole method); assay type: biochemical; details: aldose as substrate; for relative activity to the activity on L-ribose: activity on L-ribose designated as 100%
Description: The activity of the L-ribose isomerase of the invention can be assayed as follows. 0.05 ml of 0.05 M glycine-NaOH buffer (pH 9.0), 0.05 ml of 0.05 M L-ribose and the enzyme solution were mixed together to a total volume of 0.5 ml, for the enzyme reaction at 45° C., to generate L-ribulose, which is assayed by the cysteine/carbazole method. One unit of the enzyme activity is designated as the enzyme amount to generate 1 μmol of L-ribulose per one minute.
Using 50 mM L-ribose as a substrate, the enzyme reaction continued at 45° C. for 10 minutes, so that the amount of the generated ketose (L-ribulose) was assayed by the cysteine/carbazole method. As to the temperature stability, the enzyme activity was assayed after 10-min treatment at individual temperatures. As to the optimal pH conditions, the enzyme reaction was performed at 45° C. for 10 minutes in 50 mM acetate buffer (pH 2 to 6), 50 mM sodium phosphate buffer (pH 6 to 8), 50 mM Tris-HCl buffer (pH 8 to 9) or 50 mM glycine-sodium hydroxide buffer (pH 9 to 11), using 50 mM L-ribose as substrate, to assay the amount of a ketose (L-ribulose) generated thereafter by the cysteine/carbazole method (Table 2). The enzyme reaction was done at the composition shown in Table 2 at 45° C. for 10 minutes (Table 3), and the reaction was terminated by adding 50 μl of 10% TCA (trichloroacetic acid). […] After completion of the reaction, absorbance at 540 nm was measured with an ultraviolet/visible spectrophotometer V530 (JASCO Corporation). Additionally, the amount of the enzyme generating 1 μmol L-ribulose per one minute was designated as one unit.
According to the assay method of the activity, the activity of the enzyme was assayed, using various aldose types as substrates. The activities on various aldose types are shown in relative activities to the activity on L-ribose, which is designated as 100%.

[2] = tested on: thermostable L-ribose isomerase from Raoultella ornithinolytica; assay: Confirmation of enzyme reaction product by HPLC; assay type: biochemical; details: 50 mM substrate, crude enzyme solution, 40° C., 24 hours
Description: A crude enzyme solution (0.65 U/ml) was recovered after culturing in a culture medium with 0.1% D-lyxose in 2% TSB, at 37° C. for 2 days and ultrasonication for extraction; 150 μl of the crude enzyme solution reacted with 50 mM of a substrate including individual ketose types such as L-ribose, D-fructose, D-tagatose and L-psicose at 40° C. for 24 hours. After reaction, the enzyme was inactivated under heating in hot water for 2 minutes, and centrifuged at 12,000 rpm for 5 minutes to recover the supernatant. Then, about 2 spoonfuls of a desalted resin (mixed and dried at a ratio of IRA411:SKIB=2:1) in a microspatula were added to the resulting supernatant, for mixing under inversion. After one hour, the solution was filtered through a 0.45-μm filter, for high-performance liquid chromatography (HPLC). As the column, Hitachi HPLC column GL-C611 (manufactured by Hitachi Chemical Industry Co., Ltd.) was used; as the detector, a differential refractive meter (L-7490 refractive index detector manufactured by Hitachi Hightech Co., Ltd.) was used. While the column was retained at 60° C., 10^−4 M sodium hydroxide solution as an eluent was used at a flow rate of 1.0 mL/min. The resulting signals were collected and analyzed with a data analysis software (SmartChrom, manufactured by KYA Technologies Co., Ltd.).

Structure (SMILES)	activity of the enzyme for the substrate (in words) [1]	relative activity to the activity on L-ribose [1]	product generated from the substrate [2]
O=C[C@@H](O)[C@H](O)[C@H](O)[C@H](O)CO [D-altrose]	never exerts any activities		
O=C[C@@H](O)[C@@H](O)[C@@H](O)[C@H](O)CO [D-tallose]	exerted activities	56.9%	
O=C(CO)[C@@H](O)[C@H](O)[C@H](O)CO [D-fructose]			D-mannose is generated
O=C[C@H](O)[C@@H](O)[C@H](O)[C@H](O)CO [D-glucose]	never exerts any activities		
O=C[C@@H](O)[C@@H](O)[C@@H](O)CO [L-ribose]	highest activity	100%	L-ribulose is generated
O=C[C@@H](O)[C@@H](O)[C@H](O)[C@H](O)CO [D-mannose]	exerted activities		
O=C[C@@H](O)[C@@H](O)[C@H](O)CO [D-lyxose]	exerted activities	15.3%	
O=C(CO)[C@@H](O)[C@@H](O)[C@@H](O)CO [L-psicose]			L-allose is generated
O=C[C@H](O)[C@H](O)[C@H](O)[C@H](O)CO [D-allose]	never exerts any activities		
O=C[C@@H](O)[C@@H](O)[C@@H](O)[C@@H](O)CO [L-allose]	exerted activities	2.2%	
O=C(CO)[C@@H](O)[C@@H](O)[C@H](O)CO [D-tagatose]			D-tallose is generated
